Reference: ChEMBL document CHEMBL1157539, “Thousands of chemical starting points for antimalarial lead identification” (Nature, 2010)

These molecules were tested on Plasmodium falciparum (assay: GSK_TCMDC: Inhibition of Plasmodium falciparum 3D7 in whole erythrocytes, using parasite LDH activity as an index of growth.). Conditions: Plasmodium falciparum, 3D7.
Format: functional, organism-based

Compound | XC50 [nM]
COc1ccc2nc(C)cc(N/N=C/c3cccc([N+](=O)[O-])c3)c2c1 | 725
CCN(CC)CCN(Cc1ccc(-c2ccc(C(F)(F)F)cc2)cc1)C(=O)Cn1c(CCc2c(F)cc(F)cc2F)nc(=O)c2ccccc21 | 1040
O=C(/C=C/c1ccc(Cl)c(Cl)c1)NCCCCCN1CCC(C(=O)Nc2ccc(Cl)c(Cl)c2)CC1 | 637
COc1ccc2nccc([C@@H](O)CN3CCC(NCCOc4cccc(C(F)(F)F)c4Cl)CC3)c2c1 | 154
CC(O)C1CCCCN1C(=O)c1cccc(-c2cccc(-c3nc4cc(F)ccc4[nH]3)c2)c1 (centres undefined) | 536
CCCCCC(C)C(C)c1cc(O)c2c(c1)OC(C)(C)CC2=Cc1ccncc1 (centres undefined) | 213
CCN(CC)CCNC(=O)c1ccc(Nc2ncc([N+](=O)[O-])c(Nc3ccccc3OC)n2)cc1 | 144
CCCCNc1nc(NCCCC)c2c(C)c(Cc3ccccc3)c(NCCCC)nc2n1 | 889
O=C(O)/C=C/c1cccc(F)c1F | 96.1
Fc1ccc2[nH]c(-c3ccccc3)nc2c1CN1CCC(N2CCCC2)CC1 | 717
O=C(Nc1ccc(OC(F)(F)F)cc1)Nc1ccc([N+](=O)[O-])cc1 | 878
CC(CCON1C(N)=NC(N)=NC1(C)C)c1ccc(Cl)cc1 (centres undefined) | 3.2
CN(C)CCCOc1cccc(NC(=O)Nc2ccc(-c3ccccc3)cc2)c1 | 868
CC1(C)NC(N)=NC(=N)N1OCCNCc1ccc(Cl)cc1 | 160
CCCc1cc(Cc2cnc(N)nc2N)cc(CCC)c1OCCCCC(=O)OC | 41.9
CCCCCN1CCCC1CNS(=O)(=O)c1ccc(C(=O)Nc2ccc(C(F)(F)F)cc2)cc1 (centres undefined) | 838
COc1ccc2nccc(NC(=O)C3CCC(NCc4cnc(SC)c([N+](=O)[O-])c4)CC3)c2n1 (centres undefined) | 927
Oc1ccc(Cl)cc1Nc1nc(C(F)(F)F)nc2ccccc12 | 938
CCOc1cc(C(=O)NCCCN2CCN(c3cccc(Cl)c3)CC2)ccc1-c1nc2cc(Cl)c(F)cc2[nH]1 | 866
N=C(NC1CC1)c1ccc2[nH]c(CCCCCc3nc4cc(C(=N)NC5CC5)ccc4[nH]3)nc2c1 | 934

Compound | XC50 [nM]
COc1ccc(CN2CCCN(Cc3cccc(NC(=O)c4ccc(-c5ccccc5)cc4)c3)CC2)cc1 | 943
CN(CCCCNC(=O)/C=C/c1ccccc1)C1CC2(CCN(C(=O)OC(C)(C)C)CC2)c2ccccc21 (centres undefined) | 1140
O=C(N[C@@H](CC1CCCCC1)C(=O)NCc1cccc(C(F)(F)F)c1)c1ccc(O)c(-c2ccc(Cl)c(Cl)c2)c1 | 224
COc1ccccc1CCNc1nc(C)cc(N[C@@H](Cc2ccccc2)C(=O)NCCCOC(C)C)n1 | 865
N=C(N)NN=CC(=O)Nc1cc([N+](=O)[O-])cc([N+](=O)[O-])c1 | 628
Cc1ccccc1Cn1ccc2c3c(N)nc(N)nc3ccc21 | 3.2
COc1ccc(Cn2c(=O)[nH]c3cc(C(=O)NC4CCN(Cc5ccccc5)CC4)ccc3c2=O)cc1 | 751
O=C(Nc1cccc(CN2CCN(C(=O)c3ccccc3)CC2)c1)c1cccs1 | 308
N=C(N)Nc1nc(-c2cccc(NC(=O)Cc3ccccc3)c2)cs1 | 1000
COc1ccc2nccc([C@@H](O)CN3CCC(NC(=O)c4[nH]c5ccccc5c4-c4ccccc4)CC3)c2c1 | 904
O=C(/C=C/c1ccc(C(F)(F)F)cc1)NCCCCCN1CCCN(C(=O)Nc2ccc(Cl)cc2)CC1 | 869
Cc1cnc2ccc(NS(=O)(=O)c3sc4ccc(Cl)cc4c3C)cc2c1N1CCNCC1 | 807
Nc1nc(Nc2cccc(Cl)c2)ncc1C(=O)NCc1ccncc1 | 832
CC1(C)NC(N)=NC(=N)N1OCc1cc(Cl)cc2c1OCOC2 | 3.2
CN1CCC(C(=O)Nc2ccc(-c3ccc(-c4nc5ccccc5[nH]4)s3)cc2)CC1 | 816
CC(C)CNCc1cccc(-c2ccc(CN(C(=O)NCCc3ccccc3)C3CCN(Cc4ccccc4)CC3)cc2)c1 | 764
CCN(CCCN1CCCCC1)c1cc(C)nc(Nc2ccc(C)cc2C(F)(F)F)n1 | 544
Cc1ccc(F)cc1S(=O)(=O)N1CCCCC(c2ccc(C(F)(F)F)cc2)=N1 | 937
Cc1cc(O)cc2c(C3CCN(CC4CCC(NC(=O)/C=C/c5ccccc5Cl)CC4)CC3)c[nH]c12 (centres undefined) | 900
